Assay results: PubChem BioAssay AID1963865 (Molecular Pharmacology Branch, DTP, NCI, 2024)

System: KRAS PDC multicell spheroid viability
Assay: Anticancer human tumor 825966-067-R-J1-PDC patient-derived colon carcinoma cell line growth inhibition [KRAS2]
Details: for IC50: curve of first compound; for viability, T/C: stronger effect = lower value
Method in brief: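 KRAS-mutant tumor cells were grown as spheroids with HUVEC endothelial cells and human MSCs as stroma. Targeted agents were tested alone and with KRAS pathway inhibitors. Doses started at or near clinical Cmax, or 10 microM, descending half-log.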

[1] = second compound 0.1 µM, first compound 0.0316 µM
[2] = second compound 0.1 µM, first compound 0.1 µM
[3] = second compound 0.1 µM, first compound 0.316 µM
[4] = second compound 0.1 µM, first compound 1 µM
[5] = second compound 0.1 µM, first compound 3.16 µM
[6] = second compound 0.1 µM, first compound 10 µM
[7] = second compound 0.316 µM, first compound 0.0316 µM
[8] = second compound 0.316 µM, first compound 0.1 µM
[9] = second compound 0.316 µM, first compound 0.316 µM
[10] = second compound 0.316 µM, first compound 1 µM
[11] = second compound 0.316 µM, first compound 3.16 µM
[12] = second compound 0.316 µM, first compound 10 µM
[13] = second compound 1 µM, first compound 0.0316 µM
[14] = second compound 1 µM, first compound 0.1 µM
[15] = second compound 1 µM, first compound 0.316 µM
[16] = second compound 1 µM, first compound 1 µM
[17] = second compound 1 µM, first compound 3.16 µM
[18] = second compound 1 µM, first compound 10 µM
[19] = second compound 3.16 µM, first compound 0.0316 µM
[20] = second compound 3.16 µM, first compound 0.1 µM
[21] = second compound 3.16 µM, first compound 0.316 µM
[22] = second compound 3.16 µM, first compound 1 µM
[23] = second compound 3.16 µM, first compound 3.16 µM
[24] = second compound 3.16 µM, first compound 10 µM
[25] = second compound 10 µM, first compound 0.0316 µM
[26] = second compound 10 µM, first compound 0.1 µM
[27] = second compound 10 µM, first compound 0.316 µM
[28] = second compound 10 µM, first compound 1 µM
[29] = second compound 10 µM, first compound 3.16 µM
[30] = second compound 10 µM, first compound 10 µM
[31] = second compound 0.1 µM, first compound 0.01 µM
[32] = second compound 0.316 µM, first compound 0.01 µM
[33] = second compound 1 µM, first compound 0.01 µM
[34] = second compound 3.16 µM, first compound 0.01 µM
[35] = second compound 10 µM, first compound 0.01 µM
[36] = second compound 0.1 µM, first compound 0.00316 µM
[37] = second compound 0.316 µM, first compound 0.00316 µM
[38] = second compound 1 µM, first compound 0.00316 µM
[39] = second compound 3.16 µM, first compound 0.00316 µM
[40] = second compound 10 µM, first compound 0.00316 µM
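Note: spheroids exposed to compounds for 7 days.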
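Throughout, for viability, T/C: 100% = DMSO vehicle control viability.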

Row | SMILES | IC50 (second compound 0.1 µM) [nM] | IC50 (second compound 0.316 µM) [nM] | IC50 (second compound 1 µM) [nM] | IC50 (second compound 3.16 µM) [nM] | IC50 (second compound 10 µM) [nM] | viability, T/C [1] [%] | viability, T/C [2] [%] | viability, T/C [3] [%] | viability, T/C [4] [%] | viability, T/C [7] [%] | viability, T/C [8] [%] | viability, T/C [9] [%] | viability, T/C [10] [%] | viability, T/C [13] [%] | viability, T/C [14] [%] | viability, T/C [15] [%] | viability, T/C [19] [%] | viability, T/C [20] [%] | viability, T/C [25] [%] | viability, T/C [26] [%] | also measured
1 | CC(C)NCC(C(=O)N1CCN(c2ncnc3c2C(C)CC3O)CC1)c1ccc(Cl)cc1 (stereo not given) + CC1OCC2(CCN(c3cnc(Sc4ccnc(N)c4Cl)c(N)n3)CC2)C1N | 4490 | 4130 | 2550 | 1420 | 35.8 | 73.2 | 97.8 | 129 | 87.9 | 86.3 | 121 | 145 | 122 | 92.9 | 102 | 133 | 102 | 107 | 53.1 | 29.5 | viability, T/C [5]: 67.5%; viability, T/C [6]: 11.6%; viability, T/C [11]: 60.6%; viability, T/C [12]: 14.5%; viability, T/C [16]: 112%; viability, T/C [17]: 36.2%; viability, T/C [18]: 12.1%; viability, T/C [21]: 137%; viability, T/C [22]: 67.7%; viability, T/C [23]: 13.4%; viability, T/C [24]: 5.28%; viability, T/C [27]: 21.9%; viability, T/C [28]: 6.39%; viability, T/C [29]: 4.52%; viability, T/C [30]: 4.31%
2 | CC1COCCN1c1cc(-c2ccnn2C)c2ccnc(-c3ccn[nH]3)c2n1 (stereo not given) + CC1OCC2(CCN(c3cnc(Sc4ccnc(N)c4Cl)c(N)n3)CC2)C1N | 2860 | > 3160 | 3160 | 79.3 | 17.2 | 120 | 78.5 | 75.3 | 60 | 139 | 57.9 | 66.4 | 60.2 | 135 | 57.4 | 55.8 | 118 | 32.4 | 29.6 | 12.9 | viability, T/C [31]: 135%; viability, T/C [5]: 46.6%; viability, T/C [32]: 125%; viability, T/C [11]: 59%; viability, T/C [33]: 128%; viability, T/C [16]: 51.3%; viability, T/C [17]: 48.5%; viability, T/C [34]: 134%; viability, T/C [21]: 29%; viability, T/C [22]: 32.9%; viability, T/C [23]: 36.3%; viability, T/C [35]: 68.1%; viability, T/C [27]: 11.3%; viability, T/C [28]: 12.6%; viability, T/C [29]: 18.3%
3 | CCN1CCN(Cc2ccc(Nc3ncc(F)c(-c4cc(F)c5nc(C)n(C(C)C)c5c4)n3)nc2)CC1 + CC1OCC2(CCN(c3cnc(Sc4ccnc(N)c4Cl)c(N)n3)CC2)C1N | > 1000 | > 1000 | > 1000 | 842 | 64.9 | 102 | 129 | 143 | 124 | 96.7 | 139 | 135 | 74.4 | 112 | 130 | 164 | 98.1 | 117 | 72.4 | 36 | viability, T/C [36]: 121%; viability, T/C [31]: 110%; viability, T/C [37]: 105%; viability, T/C [32]: 115%; viability, T/C [38]: 105%; viability, T/C [33]: 113%; viability, T/C [16]: 87.3%; viability, T/C [39]: 95.2%; viability, T/C [34]: 96.7%; viability, T/C [21]: 150%; viability, T/C [22]: 39.2%; viability, T/C [40]: 72%; viability, T/C [35]: 84.8%; viability, T/C [27]: 18.4%; viability, T/C [28]: 10.7%
4 | CCNC(=O)CC1N=C(c2ccc(Cl)cc2)c2cc(OC)ccc2-n2c(C)nnc21 (stereo not given) + CC1OCC2(CCN(c3cnc(Sc4ccnc(N)c4Cl)c(N)n3)CC2)C1N | > 10000 | > 10000 | > 10000 | > 10000 | > 10000 | 104 | 107 | 122 | 82.7 | 101 | 123 | 119 | 90.3 | 97.5 | 139 | 138 | 97.6 | 118 | 85.2 | 91.5 | viability, T/C [5]: 89.9%; viability, T/C [6]: 84.9%; viability, T/C [11]: 91.2%; viability, T/C [12]: 80.1%; viability, T/C [16]: 108%; viability, T/C [17]: 107%; viability, T/C [18]: 89.6%; viability, T/C [21]: 137%; viability, T/C [22]: 103%; viability, T/C [23]: 84.2%; viability, T/C [24]: 71.3%; viability, T/C [27]: 93.5%; viability, T/C [28]: 87.6%; viability, T/C [29]: 67.6%; viability, T/C [30]: 71.8%
5 | Cn1nccc1Nc1nccc(-c2cc3c(s2)C(C)(C)N(CCN2CCOCC2)C3=O)n1 + CC1OCC2(CCN(c3cnc(Sc4ccnc(N)c4Cl)c(N)n3)CC2)C1N | > 10000 | > 10000 | > 10000 | > 10000 | 85 | 125 | 97.3 | 128 | 95.8 | 88.8 | 124 | 131 | 104 | 93 | 115 | 106 | 107 | 130 | 80.4 | 45 | viability, T/C [5]: 104%; viability, T/C [6]: 68.5%; viability, T/C [11]: 87.4%; viability, T/C [12]: 77.3%; viability, T/C [16]: 81.9%; viability, T/C [17]: 89.2%; viability, T/C [18]: 63.3%; viability, T/C [21]: 92.3%; viability, T/C [22]: 56.6%; viability, T/C [23]: 59%; viability, T/C [24]: 77%; viability, T/C [27]: 14.4%; viability, T/C [28]: 6.71%; viability, T/C [29]: 12.1%; viability, T/C [30]: 43.9%
6 | Cn1ncnc1[C@H]1c2n[nH]c(=O)c3cc(F)cc(c23)N[C@@H]1c1ccc(F)cc1 + CC1OCC2(CCN(c3cnc(Sc4ccnc(N)c4Cl)c(N)n3)CC2)C1N | > 100 | > 100 | > 100 | > 100 | < 0.316 | 74.8 | 64.7 |  |  | 89.6 | 69.7 |  |  | 78.5 | 79.6 |  | 87.1 | 85 | 37.2 | 18.1 | viability, T/C (second compound 0.1 µM, first compound 0.000316 µM): 109%; viability, T/C (second compound 0.1 µM, first compound 0.001 µM): 82%; viability, T/C [36]: 85.6%; viability, T/C [31]: 71.5%; viability, T/C (second compound 0.316 µM, first compound 0.000316 µM): 110%; viability, T/C (second compound 0.316 µM, first compound 0.001 µM): 99.8%; viability, T/C [37]: 103%; viability, T/C [32]: 106%; viability, T/C (second compound 1 µM, first compound 0.000316 µM): 87%; viability, T/C (second compound 1 µM, first compound 0.001 µM): 109%; viability, T/C [38]: 80%; viability, T/C [33]: 104%; viability, T/C (second compound 3.16 µM, first compound 0.000316 µM): 93.3%; viability, T/C (second compound 3.16 µM, first compound 0.001 µM): 80.7%; viability, T/C [39]: 86.8%; viability, T/C [34]: 80%; viability, T/C (second compound 10 µM, first compound 0.000316 µM): 55.1%; viability, T/C (second compound 10 µM, first compound 0.001 µM): 18.3%; viability, T/C [40]: 31.5%; viability, T/C [35]: 43.9%
